The supplement of paper PMC10307832

Legend:
Test in all cases: relative viability (nuclei count vs DMSO), 5 days (fraction); higher = more cells survive
A-427 = test system: A-427
Outline: (§1)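 A single step with final 0.05% Triton X-100, 1% formaldehyde and 1 ug/ml Hoechst fixed the cells and stained nuclei 5 days after treatment. Lung cancer cell lines in 1536-well plates had been treated by pin tool the day after seeding with one drug alone or a fixed anchor-drug dose plus five library-drug doses (not always all listed) in √10 steps, and nuclei were counted on 4× images. Relative viability is the ratio of nuclei in treated wells to nuclei in vehicle wells, taken as the median of duplicate plates.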

ABC-1 = test system: ABC-1
Outline: as §1

COR-L23 = test system: COR-L23
Outline: as §1

EMC-BAC-2 = test system: EMC-BAC-2
Outline: as §1

HARA = test system: HARA
Outline: as §1

HOP-62 = test system: HOP-62
Outline: as §1

LK-2 = test system: LK-2
Outline: as §1

LXF-289 = test system: LXF-289
Outline: as §1

NCI-H1792 = test system: NCI-H1792
Outline: as §1

NCI-H1793 = test system: NCI-H1793
Outline: as §1

NCI-H1944 = test system: NCI-H1944
Outline: as §1

NCI-H1993 = test system: NCI-H1993
Outline: as §1

NCI-H2009 = test system: NCI-H2009
Outline: as §1

NCI-H2170 = test system: NCI-H2170
Outline: as §1

NCI-H2228 = test system: NCI-H2228
Outline: as §1

NCI-H3122 = test system: NCI-H3122
Outline: as §1

NCI-H596 = test system: NCI-H596
Outline: as §1

NCI-H727 = test system: NCI-H727
Outline: as §1

PC-3 [JPC-3] = test system: PC-3 [JPC-3]
Outline: as §1

SK-LU-1 = test system: SK-LU-1
Outline: as §1

SK-MES-1 = test system: SK-MES-1
Outline: as §1

SW 1573 = test system: SW 1573
Outline: as §1

Compound: C=C1C(=O)O[C@@H](CCCCCCCC)[C@@H]1C(=O)O [C-75] + Cc1nc(NC(=O)N2CCC[C@H]2C(N)=O)sc1-c1ccnc(C(C)(C)C(F)(F)F)c1 [Alpelisib] (partner 2 µM)
- relative viability (A-427; first compound 0.08 µM): 1.06
- relative viability (A-427; first compound 0.253 µM): 1.08
- relative viability (A-427; first compound 0.8 µM): 1.14
- relative viability (A-427; first compound 2.53 µM): 0.95
- relative viability (A-427; first compound 8 µM): 1.03
- relative viability (ABC-1; first compound 0.08 µM): 0.983
- relative viability (ABC-1; first compound 0.253 µM): 1.12
- relative viability (ABC-1; first compound 0.8 µM): 0.879
- relative viability (ABC-1; first compound 2.53 µM): 0.991
- relative viability (ABC-1; first compound 8 µM): 0.585
- relative viability (COR-L23; first compound 0.08 µM): 0.762
- relative viability (COR-L23; first compound 0.253 µM): 1.02
- relative viability (COR-L23; first compound 0.8 µM): 0.753
- relative viability (COR-L23; first compound 2.53 µM): 0.741
- relative viability (COR-L23; first compound 8 µM): 0.723
- relative viability (EMC-BAC-2; first compound 0.08 µM): 0.726
- relative viability (EMC-BAC-2; first compound 0.253 µM): 0.688
- relative viability (EMC-BAC-2; first compound 0.8 µM): 0.717
- relative viability (EMC-BAC-2; first compound 2.53 µM): 0.679
- relative viability (EMC-BAC-2; first compound 8 µM): 0.726
- relative viability (HARA; first compound 0.08 µM): 0.849
- relative viability (HARA; first compound 0.253 µM): 1
- relative viability (HARA; first compound 0.8 µM): 0.767
- relative viability (HARA; first compound 8 µM): 0.883
- relative viability (HOP-62; first compound 0.08 µM): 0.9
- relative viability (HOP-62; first compound 0.253 µM): 1.11
- relative viability (HOP-62; first compound 0.8 µM): 0.95
- relative viability (HOP-62; first compound 2.53 µM): 0.926
- relative viability (HOP-62; first compound 8 µM): 0.765
- relative viability (LK-2; first compound 0.08 µM): 0.921
- relative viability (LK-2; first compound 0.253 µM): 0.771
- relative viability (LK-2; first compound 0.8 µM): 1.13
- relative viability (LK-2; first compound 2.53 µM): 1.28
- relative viability (LK-2; first compound 8 µM): 1
- relative viability (LXF-289; first compound 0.08 µM): 1.01
- relative viability (LXF-289; first compound 0.253 µM): 0.979
- relative viability (LXF-289; first compound 0.8 µM): 0.992
- relative viability (LXF-289; first compound 2.53 µM): 0.973
- relative viability (LXF-289; first compound 8 µM): 1.09
- relative viability (NCI-H1792; first compound 0.08 µM): 0.67
- relative viability (NCI-H1792; first compound 0.253 µM): 0.728
- relative viability (NCI-H1792; first compound 0.8 µM): 0.687
- relative viability (NCI-H1792; first compound 2.53 µM): 0.581
- relative viability (NCI-H1792; first compound 8 µM): 0.673
- relative viability (NCI-H1793; first compound 0.08 µM): 0.72
- relative viability (NCI-H1793; first compound 0.253 µM): 0.723
- relative viability (NCI-H1793; first compound 0.8 µM): 0.585
- relative viability (NCI-H1793; first compound 2.53 µM): 0.708
- relative viability (NCI-H1793; first compound 8 µM): 0.816
- relative viability (NCI-H1944; first compound 0.08 µM): 0.824
- relative viability (NCI-H1944; first compound 0.253 µM): 0.655
- relative viability (NCI-H1944; first compound 0.8 µM): 0.916
- relative viability (NCI-H1944; first compound 8 µM): 0.818
- relative viability (NCI-H1993; first compound 0.08 µM): 0.694
- relative viability (NCI-H1993; first compound 0.253 µM): 0.738
- relative viability (NCI-H1993; first compound 0.8 µM): 0.66
- relative viability (NCI-H1993; first compound 2.53 µM): 0.637
- relative viability (NCI-H1993; first compound 8 µM): 0.727
- relative viability (NCI-H2009; first compound 0.08 µM): 1.17
- relative viability (NCI-H2009; first compound 0.253 µM): 1.14
- relative viability (NCI-H2009; first compound 0.8 µM): 1.18
- relative viability (NCI-H2009; first compound 2.53 µM): 1.14
- relative viability (NCI-H2009; first compound 8 µM): 1.03
- relative viability (NCI-H2170; first compound 0.08 µM): 0.796
- relative viability (NCI-H2170; first compound 0.253 µM): 0.779
- relative viability (NCI-H2170; first compound 0.8 µM): 0.776
- relative viability (NCI-H2170; first compound 2.53 µM): 0.741
- relative viability (NCI-H2170; first compound 8 µM): 0.713
- relative viability (NCI-H2228; first compound 0.08 µM): 0.751
- relative viability (NCI-H2228; first compound 0.253 µM): 1.01
- relative viability (NCI-H2228; first compound 0.8 µM): 0.73
- relative viability (NCI-H2228; first compound 2.53 µM): 0.604
- relative viability (NCI-H2228; first compound 8 µM): 0.744
- relative viability (NCI-H3122; first compound 0.08 µM): 0.767
- relative viability (NCI-H3122; first compound 0.253 µM): 0.922
- relative viability (NCI-H3122; first compound 0.8 µM): 0.765
- relative viability (NCI-H3122; first compound 8 µM): 0.801
- relative viability (NCI-H596; first compound 0.08 µM): 0.51
- relative viability (NCI-H596; first compound 0.253 µM): 0.663
- relative viability (NCI-H596; first compound 0.8 µM): 0.476
- relative viability (NCI-H596; first compound 2.53 µM): 0.525
- relative viability (NCI-H596; first compound 8 µM): 0.54
- relative viability (NCI-H727; first compound 0.08 µM): 0.467
- relative viability (NCI-H727; first compound 0.253 µM): 0.76
- relative viability (NCI-H727; first compound 0.8 µM): 0.616
- relative viability (NCI-H727; first compound 2.53 µM): 0.579
- relative viability (NCI-H727; first compound 8 µM): 0.688
- relative viability (PC-3 [JPC-3]; first compound 0.08 µM): 1.02
- relative viability (PC-3 [JPC-3]; first compound 0.253 µM): 0.981
- relative viability (PC-3 [JPC-3]; first compound 0.8 µM): 1.07
- relative viability (PC-3 [JPC-3]; first compound 2.53 µM): 1.09
- relative viability (PC-3 [JPC-3]; first compound 8 µM): 1.12
- relative viability (SK-LU-1; first compound 0.08 µM): 1.04
- relative viability (SK-LU-1; first compound 0.253 µM): 1.23
- relative viability (SK-LU-1; first compound 0.8 µM): 0.909
- relative viability (SK-LU-1; first compound 2.53 µM): 1.02
- relative viability (SK-LU-1; first compound 8 µM): 0.552
- relative viability (SK-MES-1; first compound 0.08 µM): 1.1
- relative viability (SK-MES-1; first compound 0.253 µM): 0.876
- relative viability (SK-MES-1; first compound 0.8 µM): 0.902
- relative viability (SK-MES-1; first compound 2.53 µM): 0.864
- relative viability (SK-MES-1; first compound 8 µM): 0.792
- relative viability (SW 1573; first compound 0.08 µM): 0.711
- relative viability (SW 1573; first compound 0.253 µM): 0.7
- relative viability (SW 1573; first compound 0.8 µM): 0.638
- relative viability (SW 1573; first compound 2.53 µM): 0.683
- relative viability (SW 1573; first compound 8 µM): 0.655
